What is called IC50 is the concentration that inhibits the measured activity by half. A lower IC50 goes with inhibition by little substance.

Data on 21 compounds can be found in patent US20260297080A1, “BICYCLIC COMPOUNDS AS CDK INHIBITORS” (BeOne Medicines I GmbH, priority 2022, published 2026).

For one test, the target named is CDK2/Cyclin E1 (Homo sapiens, UniProt P24941). Kind of test: CDK2/Cyclin E1 Biochemical Assay (TR-FRET), 0.060 mM ATP. To be noted: 0.15 μM Rb (Ser780)-biotin substrate, pH7.0, 60 min preincubation, 120 min reaction, room temperature. In short, it runs like this:
(§1)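 IC50 was from a four-parameter logistic fit of the 665/620 nm TR-FRET ratio (Eu anti-pRb Ser780 mAb, streptavidin-XL665). Compound (0-10 μM) was preincubated 60 min with enzyme, then reacted 120 min at room temperature with 0.15 μM biotinylated Rb (Ser780) peptide. ATP was 0.015 mM for CDK1/Cyclin B1 and 0.060 mM for CDK2/Cyclin E1; buffer was HEPES pH7.0.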
On the technique in general: TR-FRET usually uses a lanthanide donor and a delayed reading to cut background.

In the next test the target is CDK1/Cyclin B1 (Homo sapiens, UniProt P06493). Kind of test: CDK1/Cyclin B1 Biochemical Assay (TR-FRET), 0.015 mM ATP. To be noted: 0.15 μM Rb (Ser780)-biotin substrate, pH7.0, 60 min preincubation, 120 min reaction, room temperature. In short, it runs like this: as §1
CDK1/Cyclin B1, sequence (P06493 whole entry): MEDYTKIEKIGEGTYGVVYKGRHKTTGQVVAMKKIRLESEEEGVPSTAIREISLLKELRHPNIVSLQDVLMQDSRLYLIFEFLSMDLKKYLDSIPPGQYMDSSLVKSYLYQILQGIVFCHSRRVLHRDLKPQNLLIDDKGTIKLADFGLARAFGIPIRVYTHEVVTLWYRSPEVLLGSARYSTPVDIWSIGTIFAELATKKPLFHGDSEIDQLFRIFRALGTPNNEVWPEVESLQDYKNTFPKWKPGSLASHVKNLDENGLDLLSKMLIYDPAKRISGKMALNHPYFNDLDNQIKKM
CDK1/Cyclin B1, sequence (P14635 whole entry partner): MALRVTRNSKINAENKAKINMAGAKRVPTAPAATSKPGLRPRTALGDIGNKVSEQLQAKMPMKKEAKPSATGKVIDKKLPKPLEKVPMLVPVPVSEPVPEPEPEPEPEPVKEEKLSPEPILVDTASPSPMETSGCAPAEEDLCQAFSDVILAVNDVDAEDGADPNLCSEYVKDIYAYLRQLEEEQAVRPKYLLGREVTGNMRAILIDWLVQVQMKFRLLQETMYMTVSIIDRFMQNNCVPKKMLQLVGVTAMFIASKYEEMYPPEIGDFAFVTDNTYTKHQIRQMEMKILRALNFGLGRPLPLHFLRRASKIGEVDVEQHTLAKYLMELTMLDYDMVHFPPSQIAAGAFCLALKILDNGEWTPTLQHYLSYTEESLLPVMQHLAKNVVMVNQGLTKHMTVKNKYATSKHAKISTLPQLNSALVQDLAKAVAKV

For the compound `CC(C)NC(=O)O[C@H]1CC[C@@H](c2cc(Nc3ccc4c(c3F)CS(=O)(=O)N4CCO)n[nH]2)C1` (single isomer, unassigned) [Example 271b, cis-3-(3-((4-fluoro-1-(2-hydroxyethyl)-2,2-dioxido-1,3-dihydrobenzo[c]isothiazol-5-yl)amino)-1H-pyrazol-5-yl)cyclopentyl isopropylcarbamate], the figures for the IC50 against CDK2/Cyclin E1 and on CDK1/Cyclin B1 were 0.0018 µM and 0.049 µM, respectively.
Take `CCCNC(=O)O[C@H]1CC[C@@H](c2cc(Nc3ccc4c(c3F)CS(=O)(=O)N4CCO)n[nH]2)C1` (single isomer, unassigned) [Example 272a, cis-3-(3-((4-fluoro-1-(2-hydroxyethyl)-2,2-dioxido-1,3-dihydrobenzo[c]isothiazol-5-yl)amino)-1H-pyrazol-5-yl)cyclopentyl propylcarbamate]: the 50% inhibitory concentration (IC50) at CDK2/Cyclin E1 amounted to 0.0155 µM; at CDK1/Cyclin B1, 0.146 µM.
On the same counts, the results for `CCCNC(=O)O[C@H]1CC[C@@H](c2cc(Nc3ccc4c(c3F)CS(=O)(=O)N4CCO)n[nH]2)C1` (single isomer, unassigned) [Example 272b, cis-3-(3-((4-fluoro-1-(2-hydroxyethyl)-2,2-dioxido-1,3-dihydrobenzo[c]isothiazol-5-yl)amino)-1H-pyrazol-5-yl)cyclopentyl propylcarbamate] are 0.003 µM and 0.059 µM.
On the same counts, the results for `CC(C)NC(=O)O[C@H]1CC[C@@H](c2cc(Nc3ccc4c(c3F)CS(=O)(=O)N4C3CC3)n[nH]2)C1` (single isomer, unassigned) [Example 275a, cis-3-(3-((1-cyclopropyl-4-fluoro-2,2-dioxido-1,3-dihydrobenzo[c]isothiazol-5-yl)amino)-1H-pyrazol-5-yl)cyclopentyl isopropylcarbamate] are 0.0084 µM and 0.398 µM.
On the same counts, the results for `CC(C)NC(=O)O[C@H]1CC[C@@H](c2cc(Nc3ccc4c(c3F)CS(=O)(=O)N4C3CC3)n[nH]2)C1` (single isomer, unassigned) [Example 275b, cis-3-(3-((1-cyclopropyl-4-fluoro-2,2-dioxido-1,3-dihydrobenzo[c]isothiazol-5-yl)amino)-1H-pyrazol-5-yl)cyclopentyl isopropylcarbamate] are 0.0031 µM and 0.16 µM.
`[2H]C([2H])([2H])N1c2c(F)cc(Nc3cc([C@@H]4CC[C@H](OC(=O)NC(C)C)C4)[nH]n3)cc2CS1(=O)=O` (single isomer, unassigned) [Example 289a, cis-3-(3-((7-fluoro-1-(methyl-d3)-2,2-dioxido-1,3-dihydrobenzo[c]isothiazol-5-yl)amino)-1H-pyrazol-5-yl)cyclopentyl isopropylcarbamate]: the IC50 on CDK2/Cyclin E1 is 0.01 µM; against CDK1/Cyclin B1, 0.196 µM.
On the same counts, the results for `[2H]C([2H])([2H])N1c2c(F)cc(Nc3cc([C@@H]4CC[C@H](OC(=O)NC(C)C)C4)[nH]n3)cc2CS1(=O)=O` (single isomer, unassigned) [Example 289b, cis-3-(3-((7-fluoro-1-(methyl-d3)-2,2-dioxido-1,3-dihydrobenzo[c]isothiazol-5-yl)amino)-1H-pyrazol-5-yl)cyclopentyl isopropylcarbamate] are 0.012 µM and 0.116 µM.
On the same counts, the results for `[2H]C([2H])([2H])N1c2c(F)cc(Nc3cc([C@@H]4CC[C@H](OC(=O)NCCC)C4)[nH]n3)cc2CS1(=O)=O` (single isomer, unassigned) [Example 290a, cis-3-(3-((7-fluoro-1-(methyl-d3)-2,2-dioxido-1,3-dihydrobenzo[c]isothiazol-5-yl)amino)-1H-pyrazol-5-yl)cyclopentyl propylcarbamate] are 0.016 µM and 0.356 µM.
On the same counts, the results for `[2H]C([2H])([2H])N1c2c(F)cc(Nc3cc([C@@H]4CC[C@H](OC(=O)NCCC)C4)[nH]n3)cc2CS1(=O)=O` (single isomer, unassigned) [Example 290b, cis-3-(3-((7-fluoro-1-(methyl-d3)-2,2-dioxido-1,3-dihydrobenzo[c]isothiazol-5-yl)amino)-1H-pyrazol-5-yl)cyclopentyl propylcarbamate] are 0.0075 µM and 0.094 µM.
As to `[2H]C([2H])([2H])N1c2c(F)cc(Nc3cc([C@@H]4CC[C@H](OC(=O)NC5(C)CC5)C4)[nH]n3)cc2CS1(=O)=O` (single isomer, unassigned) [Example 291a, cis-3-(3-((7-fluoro-1-(methyl-d3)-2,2-dioxido-1,3-dihydrobenzo[c]isothiazol-5-yl)amino)-1H-pyrazol-5-yl)cyclopentyl(1-methylcyclopropyl)carbamate], the IC50 worked out at 0.002 µM against CDK2/Cyclin E1 and 0.076 µM on CDK1/Cyclin B1.
With `[2H]C([2H])([2H])N1c2c(F)cc(Nc3cc([C@@H]4CC[C@H](OC(=O)NC5(C)CC5)C4)[nH]n3)cc2CS1(=O)=O` (single isomer, unassigned) [Example 291b, cis-3-(3-((7-fluoro-1-(methyl-d3)-2,2-dioxido-1,3-dihydrobenzo[c]isothiazol-5-yl)amino)-1H-pyrazol-5-yl)cyclopentyl(1-methylcyclopropyl)carbamate], the results for the IC50 against CDK2/Cyclin E1 and on CDK1/Cyclin B1 were 0.0013 µM and 0.048 µM, respectively.
On the same counts, the results for `CC(C)NC(=O)O[C@H]1CC[C@@H](c2cc(Nc3cc4c(cc3F)NS(=O)(=O)C4)n[nH]2)C1` (single isomer, unassigned) [Example 292a, cis-3-(3-((6-fluoro-2,2-dioxido-1,3-dihydrobenzo[c]isothiazol-5-yl)amino)-1H-pyrazol-5-yl)cyclopentyl isopropylcarbamate] are 0.013 µM and 1.41 µM.
On the same counts, the results for `CC(C)NC(=O)O[C@H]1CC[C@@H](c2cc(Nc3cc4c(cc3F)NS(=O)(=O)C4)n[nH]2)C1` (single isomer, unassigned) [Example 292b, cis-3-(3-((6-fluoro-2,2-dioxido-1,3-dihydrobenzo[c]isothiazol-5-yl)amino)-1H-pyrazol-5-yl)cyclopentyl isopropylcarbamate] are 0.0052 µM and 0.457 µM.
Turning to `CC(C)NC(=O)O[C@H]1CC[C@@H](c2cc(Nc3cc4c(cc3F)N(CCO)S(=O)(=O)C4)n[nH]2)C1` (single isomer, unassigned) [Example 296a, cis-3-(3-((6-fluoro-1-(2-hydroxyethyl)-2,2-dioxido-1,3-dihydrobenzo[c]isothiazol-5-yl)amino)-1H-pyrazol-5-yl)cyclopentyl isopropylcarbamate], the half-inhibitory concentration (IC50) on CDK2/Cyclin E1 was found to be 0.015 µM; against CDK1/Cyclin B1 it was 0.8 µM.
Regarding `CC(C)NC(=O)O[C@H]1CC[C@@H](c2cc(Nc3cc4c(cc3F)N(CCO)S(=O)(=O)C4)n[nH]2)C1` (single isomer, unassigned) [Example 296b, cis-3-(3-((6-fluoro-1-(2-hydroxyethyl)-2,2-dioxido-1,3-dihydrobenzo[c]isothiazol-5-yl)amino)-1H-pyrazol-5-yl)cyclopentyl isopropylcarbamate], the half-inhibitory concentration (IC50) amounted to 0.0084 µM at CDK2/Cyclin E1 and 0.497 µM against CDK1/Cyclin B1.
On the same counts, the results for `CC(C)NC(=O)O[C@H]1CC[C@@H](c2cc(Nc3ccc4c(c3)C(C)NS4(=O)=O)n[nH]2)C1` (single isomer, unassigned) [Example 321a, cis-3-(3-((3-methyl-1,1-dioxido-2,3-dihydrobenzo[d]isothiazol-5-yl)amino)-1H-pyrazol-5-yl)cyclopentyl isopropylcarbamate] are 0.0029 µM and 0.095 µM.
In the case of `CC(C)NC(=O)O[C@H]1CC[C@@H](c2cc(Nc3ccc4c(c3)C(C)NS4(=O)=O)n[nH]2)C1` (single isomer, unassigned) [Example 321b, cis-3-(3-((3-methyl-1,1-dioxido-2,3-dihydrobenzo[d]isothiazol-5-yl)amino)-1H-pyrazol-5-yl)cyclopentyl isopropylcarbamate], the IC50 on CDK2/Cyclin E1 came to 0.0006 µM; at CDK1/Cyclin B1, 0.015 µM.
On the same counts, the results for `CC(C)NC(=O)O[C@H]1CC[C@@H](c2cc(Nc3ccc4c(c3)C(C)NS4(=O)=O)n[nH]2)C1` (single isomer, unassigned) [Example 321c, cis-3-(3-((3-methyl-1,1-dioxido-2,3-dihydrobenzo[d]isothiazol-5-yl)amino)-1H-pyrazol-5-yl)cyclopentyl isopropylcarbamate] are 0.0013 µM and 0.026 µM.
On the same counts, the results for `CC(C)NC(=O)O[C@H]1CC[C@@H](c2cc(Nc3ccc4c(c3)C(C)NS4(=O)=O)n[nH]2)C1` (single isomer, unassigned) [Example 321d, cis-3-(3-((3-methyl-1,1-dioxido-2,3-dihydrobenzo[d]isothiazol-5-yl)amino)-1H-pyrazol-5-yl)cyclopentyl isopropylcarbamate] are 0.0006 µM and 0.0054 µM.
On the same counts, the results for `CC1NS(=O)(=O)c2ccc(Nc3cc([C@@H]4CC[C@H](OC(=O)NC5(C)CC5)C4)[nH]n3)cc21` (single isomer, unassigned) [Example 322a, cis-3-(3-((3-methyl-1,1-dioxido-2,3-dihydrobenzo[d]isothiazol-5-yl)amino)-1H-pyrazol-5-yl)cyclopentyl(1-methylcyclopropyl)carbamate] are 0.0011 µM and 0.017 µM.
Regarding `CC1NS(=O)(=O)c2ccc(Nc3cc([C@@H]4CC[C@H](OC(=O)NC5(C)CC5)C4)[nH]n3)cc21` (single isomer, unassigned) [Example 322b, cis-3-(3-((3-methyl-1,1-dioxido-2,3-dihydrobenzo[d]isothiazol-5-yl)amino)-1H-pyrazol-5-yl)cyclopentyl(1-methylcyclopropyl)carbamate], the values for the IC50 at CDK2/Cyclin E1 and against CDK1/Cyclin B1 were 0.0006 µM and 0.0032 µM, respectively.
